The text below walks through data of ChEMBL document CHEMBL1201862, “PubChem BioAssay data set” (2004).

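1) Cells in 96-well plates. 2) Compound, 48 h, 5 concentrations. 3) Linear interpolation between surrounding doses. 4) Unreached endpoint = highest concentration. GI50 = concentration required for 50% inhibition of growth.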 Activity calls are given as the source filed them. Rule as the data show it: active = GI50 up to about 1.1 µM and inactive = higher.

Among the test systems are BT-549; CCRF-CEM; HOP-62; HOP-92; Hs-578T; IGROV-1; M14; MDA-MB-231; NCI-H226; NCI-H460; OVCAR-3; OVCAR-4; PC-3; SF-268; SF-295; SK-MEL-28; SNB-75; U-251; UACC-257; UACC-62.
What all share (test): NCI-60 cell line screen, 48 h

Turning to `OC1(c2ccc3ccccc3c2)c2c(c3ccccc3c3ccccc23)C2=NCCN21` (stereo not given), the GI50 in the assay with BT-549 is 14.7 µM (inactive); in the assay on CCRF-CEM it was 4.25 µM (inactive); in the assay on HOP-62, 9.33 µM (inactive); in the assay with HOP-92, 7.18 µM (inactive); with Hs-578T, 6.14 µM (inactive); in the assay on IGROV-1 it was 3.85 µM (inactive). Besides, the GI50 with M14 is 2.12 µM (inactive); in the assay with MDA-MB-231, 10.1 µM (inactive); in the assay on NCI-H226, 34.5 µM (inactive); in the assay with NCI-H460 it was 4.3 µM (inactive); in the assay on OVCAR-3 it was 7.21 µM (inactive); in the assay on OVCAR-4 it was 3.55 µM (inactive). The GI50 in the assay with PC-3 is 4.54 µM (inactive); in the assay on SF-268, 5.79 µM (inactive); in the assay with SF-295, 3.09 µM (inactive); in the assay on SK-MEL-28, 2.12 µM (inactive); with SNB-75, 3.11 µM (inactive); in the assay with U-251 it was 5.75 µM (inactive). For the same compound, the GI50 in the assay with UACC-257 was 18.5 µM (inactive); with UACC-62, 13.5 µM (inactive).
For `O=[N+]([O-])c1ccc2ncccc2c1CCc1c([N+](=O)[O-])ccc2ncccc12`, the GI50 is > 100 µM (inactive) in the assay on BT-549; > 100 µM (inactive) in the assay on CCRF-CEM; > 100 µM (inactive) in the assay with HOP-62; > 35.3 µM (inactive) in the assay with HOP-92; > 100 µM (inactive) in the assay on Hs-578T; > 100 µM (inactive) with IGROV-1. In addition, the GI50 in the assay with M14, with MDA-MB-231, in the assay with NCI-H226, in the assay with NCI-H460, in the assay on OVCAR-3 and with OVCAR-4 was > 100 µM (inactive) each time. For the same compound, the GI50 in the assay with PC-3, in the assay on SF-268, in the assay on SF-295, with SK-MEL-28, with SNB-75 and in the assay on U-251 was > 100 µM (inactive) in each case. Moreover, the GI50 in the assay on UACC-257 and in the assay on UACC-62 was > 100 µM (inactive) throughout.
For the compound `COc1cc2c(c(OC)c1OC)-c1ccc(SC)c(=O)cc1C(NC(=O)c1ccccc1)CC2` (stereo not given), the GI50 in the assay on BT-549 was 15.6 µM (inactive); with CCRF-CEM, < 0.01 µM (active); with HOP-62 it was < 0.01 µM (active); in the assay with HOP-92 it was 0.0119 µM (active); in the assay with Hs-578T, < 0.01 µM (active); with IGROV-1 it was < 0.01 µM (active). For the same compound, the GI50 is < 0.01 µM (active) in the assay with M14; < 0.01 µM (active) with MDA-MB-231; 0.0465 µM (active) in the assay on NCI-H226; < 0.01 µM (active) in the assay with NCI-H460; < 0.01 µM (active) with OVCAR-3; 1.45 µM (inactive) in the assay on OVCAR-4. Besides, the GI50 in the assay with PC-3 is < 0.01 µM (active); with SF-268, < 0.01 µM (active); in the assay with SF-295 it was < 0.01 µM (active); in the assay with SK-MEL-28, 0.305 µM (active); in the assay with SNB-75, 0.167 µM (active); with U-251 it was < 0.01 µM (active). For the same compound, the GI50 in the assay with UACC-257 was 0.526 µM (active); with UACC-62 it was < 0.01 µM (active).
With `COc1ccc(-n2cnc3c(NC(C)(C)C(=O)O)ncnc32)cc1`, the GI50 with BT-549, in the assay with CCRF-CEM, with HOP-62, in the assay on HOP-92, in the assay on Hs-578T and in the assay on IGROV-1 was > 100 µM (inactive) throughout. For the same compound, the GI50 in the assay with M14, with MDA-MB-231, in the assay on NCI-H226, with NCI-H460, in the assay on OVCAR-3 and in the assay on OVCAR-4 was > 100 µM (inactive) each time. Moreover, the GI50 in the assay on PC-3, in the assay with SF-268, in the assay with SF-295, in the assay on SK-MEL-28, in the assay with SNB-75 and in the assay with U-251 was > 100 µM (inactive) in each case. For the same compound, the GI50 in the assay with UACC-257 and with UACC-62 was > 100 µM (inactive) each time.
In the case of `Cc1ccc(C(=O)/C=C(O)/C(O)=C/C(=O)c2ccc(C)cc2C)c(C)c1`, the GI50 with BT-549 is 1.64 µM (inactive); in the assay on CCRF-CEM it was 0.175 µM (active); with HOP-62 it was 1.58 µM (inactive); in the assay with HOP-92, 2.9 µM (inactive); with Hs-578T it was 2.21 µM (inactive); in the assay on IGROV-1 it was 1.98 µM (inactive). Besides, the GI50 with M14 was 1.93 µM (inactive); in the assay with MDA-MB-231, 2.34 µM (inactive); in the assay on NCI-H226 it was 2.04 µM (inactive); with NCI-H460, 1.71 µM (inactive); in the assay with OVCAR-3, 1.76 µM (inactive); in the assay on OVCAR-4, 2.7 µM (inactive). Further, the GI50 in the assay on PC-3 was 2.31 µM (inactive); in the assay with SF-268, 1.91 µM (inactive); in the assay with SF-295, 1.75 µM (inactive); in the assay on SK-MEL-28 it was 1.86 µM (inactive); in the assay with SNB-75, 1.95 µM (inactive); in the assay on U-251 it was 1.75 µM (inactive). Further, the GI50 is 1.71 µM (inactive) in the assay on UACC-257 and 1.79 µM (inactive) in the assay with UACC-62.
Regarding `CC1(C)CCCCCC(O)C(O)CCC(C)(C)C1=O` (stereo not given), the GI50 in the assay with BT-549, in the assay on CCRF-CEM, with HOP-62, with HOP-92, with Hs-578T and in the assay on IGROV-1 was > 100 µM (inactive) throughout. Moreover, the GI50 with M14, with MDA-MB-231, in the assay on NCI-H226, with NCI-H460, with OVCAR-3 and in the assay with OVCAR-4 was > 100 µM (inactive) each time. Besides, the GI50 in the assay with PC-3, with SF-268, with SF-295, in the assay with SK-MEL-28, with SNB-75 and with U-251 was > 100 µM (inactive) each time. For the same compound, the GI50 in the assay on UACC-257 and in the assay with UACC-62 was > 100 µM (inactive) each time.
Regarding `O=C(CCc1ccccc1)On1c(-c2ccccc2)nc2ccccc2c1=S`, the GI50 was 14.5 µM (inactive) with BT-549; 1.77 µM (inactive) in the assay with CCRF-CEM; 3.66 µM (inactive) in the assay with HOP-62; 42.7 µM (inactive) in the assay on HOP-92; 13.1 µM (inactive) in the assay on Hs-578T; 0.515 µM (active) with IGROV-1. The GI50 is 5.57 µM (inactive) in the assay with M14; 51.5 µM (inactive) in the assay on MDA-MB-231; 5.62 µM (inactive) in the assay with NCI-H226; 1.35 µM (inactive) with NCI-H460; 4.99 µM (inactive) in the assay on OVCAR-3; 2.9 µM (inactive) with OVCAR-4. Further, the GI50 is 4.73 µM (inactive) in the assay on PC-3; 3.07 µM (inactive) in the assay with SF-268; 3.99 µM (inactive) in the assay with SF-295; 16.1 µM (inactive) with SK-MEL-28; 9.77 µM (inactive) with SNB-75; 4.38 µM (inactive) in the assay with U-251. For the same compound, the GI50 is 22.9 µM (inactive) in the assay on UACC-257 and 3.94 µM (inactive) in the assay on UACC-62.
For `O=C(NCCc1ccccn1)c1ccc2cc(C(=O)N3CC(CCl)c4ccc([N+](=O)[O-])cc43)[nH]c2c1` (stereo not given), the GI50 is > 100 µM (inactive) in the assay on BT-549; > 100 µM (inactive) in the assay on CCRF-CEM; 13.2 µM (inactive) in the assay with HOP-62; 9.46 µM (inactive) in the assay with HOP-92; 94.6 µM (inactive) in the assay with Hs-578T; 53.6 µM (inactive) with IGROV-1. Also, the GI50 in the assay with M14 was > 100 µM (inactive); with MDA-MB-231, > 33.1 µM (inactive); with NCI-H226, > 58.9 µM (inactive); with NCI-H460 it was 22.7 µM (inactive); with OVCAR-3 it was 5.52 µM (inactive); in the assay on OVCAR-4, 4.31 µM (inactive). For the same compound, the GI50 is 44.6 µM (inactive) with PC-3; 7.1 µM (inactive) with SF-268; > 35.3 µM (inactive) in the assay on SF-295; > 100 µM (inactive) with SK-MEL-28; 18.8 µM (inactive) in the assay with SNB-75; 18.5 µM (inactive) with U-251. For the same compound, the GI50 in the assay with UACC-257 is > 46.3 µM (inactive); in the assay on UACC-62, 8.99 µM (inactive).
Regarding `CC(C)=CCCC(C)C1=C(O)C(=O)C(C)=CC1=O` (stereo not given), the GI50 in the assay with BT-549 is 14.6 µM (inactive); in the assay with CCRF-CEM it was 0.614 µM (active); in the assay with HOP-62 it was 18.9 µM (inactive); in the assay on HOP-92, 1.73 µM (inactive); in the assay on Hs-578T it was 25.1 µM (inactive); in the assay on IGROV-1, 15.6 µM (inactive). Further, the GI50 in the assay on M14 was 17.2 µM (inactive); with MDA-MB-231 it was 2.98 µM (inactive); in the assay with NCI-H226, 20.8 µM (inactive); with NCI-H460, 27.7 µM (inactive); in the assay on OVCAR-3, 7.53 µM (inactive); with OVCAR-4 it was 6.41 µM (inactive). The GI50 is 17.4 µM (inactive) in the assay with PC-3; 20.2 µM (inactive) in the assay on SF-268; 34 µM (inactive) in the assay with SF-295; 4.24 µM (inactive) in the assay on SK-MEL-28; 18.4 µM (inactive) with SNB-75; 22.9 µM (inactive) with U-251. Further, the GI50 in the assay on UACC-257 was 9.12 µM (inactive); with UACC-62, 13.4 µM (inactive).
In the case of `Cc1cc(C)nc(NS(=O)(=O)c2ccc(NNc3c4ccccc4nc4c(C(=O)Nc5ccc(S(=O)(=O)Nc6ncccn6)cc5)cccc34)cc2)n1`, the GI50 is 36.8 µM (inactive) in the assay with BT-549; 22.8 µM (inactive) in the assay with CCRF-CEM; 33.5 µM (inactive) in the assay with HOP-62; 27.3 µM (inactive) with HOP-92; 71.8 µM (inactive) in the assay on Hs-578T; 35 µM (inactive) in the assay with IGROV-1. Also, the GI50 with M14 was 33.7 µM (inactive); with MDA-MB-231, 31.3 µM (inactive); in the assay with NCI-H226 it was 22.5 µM (inactive); in the assay with NCI-H460, 25.6 µM (inactive); in the assay on OVCAR-3 it was 19.2 µM (inactive); with OVCAR-4, 33.7 µM (inactive). For the same compound, the GI50 was 26.5 µM (inactive) in the assay on PC-3; 31.9 µM (inactive) in the assay on SF-268; 32.4 µM (inactive) with SF-295; 29.5 µM (inactive) with SK-MEL-28; 37.5 µM (inactive) in the assay on SNB-75; 21.8 µM (inactive) with U-251. For the same compound, the figures for the GI50 in the assay with UACC-257 and in the assay with UACC-62 were 33.7 µM (inactive) and 25.2 µM (inactive), respectively.
